According to patent US10195245B2, “Tetrapeptides derived from human C-X-C chemokines useful for treatment of various skin conditions” (Helix Biomedix, Inc., priority 2013, dated 2019):
“Also recorded” adds a separate entry of the source. Marks after values point to notes of the source that are not given here. Where a SMILES comes first, the peptide text is derived from it.

Key:
Type in all cases: cell-based
[1] = system: SOR-300-FT human psoriasis tissue construct; assay: qPCR gene expression on SOR-300-FT psoriasis tissue
Description: SOR-300-FT, developed by MatTek Corporation (Ashland Mass.), is a highly differentiated in vitro psoriasis tissue comprised of normal, human-derived keratinocytes and psoriatic fibroblasts Morphologically, the tissue is of uniform thickness and it expresses increased levels of hyperproliferated cells as well as pro-inflammatory markers such as psoriasin, elafin, human beta-defensin-2, and LL-37 etc (Ayehunie et al., 2012). The pro-inflammatory condition of the tissue prompts us to test the inventive peptides to see if they modulate the inflammatory response. Due to the high cost of the tissue model, a representative peptide SEQ ID NO 1, HB2233, was selected as a proof of concept study using SOR-300-FT tissue model. The SOR-300-FT tissues were treated with HB2233 in duplicate at 200 μg/ml. Total 12 gene markers associated with psoriasis condition are studied. […] Both HB2233 and calcipotriol down-regulate Ki67 expression which is responsible for the hyperproliferation and early maturation of keratinocytes in psoriasis skin.
SOR-300-FT™ tissues were transferred to 6-well plates containing 0.9 ml of pre-warmed assay medium and equilibrated to standard culture conditions (37° C., 5% CO2) for 1 hour. After the 1 hr equilibration, the tissues were re-fed with fresh medium as follow: 1) for the 24 hr time point, tissues were feed with 0.9 ml of medium and 2) for time points >24 hr, tissues were feed with 5 ml of culture medium by placing the cell culture inserts on top of the washers (Part # EPI-WSHR, MatTek Corporation). Next, 50 μl of the test articles were applied topically to the psoriatic tissues (n=3) and the test article was added to the culture medium at the 3 concentrations chosen by the Sponsor. At times 24, and 48 hours: a) the tissues were rinsed topically 3× with 300-400 μL of PBS, b) the inserts containing the tissues were held tightly with sterile forceps and the test article was rinsed gently by immersing the insert into PBS and decant medium from insert, and c) fresh test article was re-applied to the tissue immediately after rinsing and decanting (50 μL topically). Analysis was performed at t=72 hr (3× repeat applications). cDNA was generated using the Qiagen RT2 First Strand Kit (cat#330401). Relative gene expression was measured using Qiagen RT2 SYBR Green qPCR Mastermix (cat#330502) and Qiagen RT2 primers. Analysis was carried out using Bio-Rad CFX software.

[2] = MTT cytotoxicity test on keratinocytes; conditions: human, normal human epidermal keratinocytes, 50 to 500 μg/ml tested
Description: C-X-C chemokines are well known for their chemotactic activity toward many cell types. […] The experiment was performed in the serum-free keratinocyte growth medium in the absence of supplement in order to restrain cells proliferation. The wounded area was examined by phase-contrast microscopy at the indicated times. […] At 20 μg/ml, the percentage of wound closure induced by SEQ IDs 1, 2, 3, 4, 5, 6 and 7 ranges from 165% to 240% compared to that of PBS treated which was taken as 100% (Table 1). […] To confirm that the peptides are not toxic to the keratinocytes at the concentrations tested for scratch wound closure all peptides were subjected to the MTT cytotoxicity test. None of the peptides were cytotoxic to normal skin keratinocyte in vitro after 24 hrs incubation at concentrations up to 500 ug/ml.
To make sure the peptides are not cytotoxic to the cells, normal human epidermal keratinocytes were seeded to a 96-well plate. The plate was incubated at 37° C. in the presence of 5% CO2 to allow the cells to grow to >95% confluent. Peptides are diluted into stock solutions at concentrations of 50, 100, 200, and 500 μg/ml. The cell culture media are replaced with fresh media containing peptides at various concentrations then incubated at 37° C. and 5% CO2 for 24 hr. At the end of treatment the cell viability was measured using MTT assay kit purchased from ATCC (Manassas Va.).

[3] = system: human umbilical vein endothelial cells (HUVEC); assay: In vitro angiogenesis assay (capillary tube formation); design: key to Promote tube formation 3 hrs / Promote tube formation 5 hrs: 0: Individual cells, well separated; 1: Cells begin to migrate and align themselves; 2: Capillary tubes visible, no sprouting; 3: Sprouting of new capillary tubes visible; 4: Closed polygons begin to form; 5: Complex mesh like structures develop
Description: Angiogenesis, the formation of new capillaries from the pre-existing vascular network, is an essential step of wound repair. The peptides generated in the current invention, SEQ ID NOs 1-7, also stimulate capillary tube formation. The in vitro angiogenesis assay uses human umbilical vein endothelial cells (HUVEC) to measurer a series of events that lead to forming new capillary tubes. Upon induction, the HUVEC undergoes migration to align then sprouting from individual cells. The sprouting event leads to formation of new capillary tubes which further develop to form closed polygons. Eventually a complex mesh like structure is developed. Human cathelicidin peptide, LL-37, is a well-studied example to promote angiogenesis. It is used as positive control in the assessment. […] Compared to LL-37, SEQ ID NOs.
The angiogenesis assay was performed using the In Vitra Angiogenesis Assay Kit purchased from Millipore. Briefly, matrix layer was prepared with ECMATRIX™ solution according to the manufacturer's instructions. The human umbilical vein endothelial cells (HUVEC) (ATCC, Manassas, Va.) were cultured in complete F12K medium (ATCC, Manassas, Va.) supplemented with 0.1 mg/ml of heparin (Sigma-Aldrich), 30 ug/ml of ECGS (Sigma-Aldrich) and 10% fetal bovine serum (ATCC, Manassas, Va.). The cells were harvested and resuspended in complete media. The peptide was mixed with cells at approximately 5×10^3-1×10^4 cells per well in a 96-well plate prior to seeding cells onto the surface of the polymerized ECMATRIX™ solution. The plate was incubated at […], 5% CO2 for up to 9-12 hr. Tube formation was inspected under an inverted light microscope periodically and pictures were taken at 3 and 5 hr intervals and assigned a numerical value to each pattern as shown below.

[4] = system: S. aureus LTA induced IL-6 expression on human skin keratinocytes; assay: Blocking LTA induced IL-6 expression (ELISA); conditions: LTA 10 ug/ml pre-incubated with peptide 50 μg/ml 30 min, 24 hrs
Description: The Gram-positive cell wall component peptidoglycan (PGN) is well known to stimulate pro-inflammatory cytokine expression. Lipoteichoic acid (LTA) is the key molecule in PGN that causes a concentration- and time-dependent increase in pro-inflammatory signals including nitric oxide synthase (iNOS), cyclooxygenase-2 (COX-2), IL-1 beta, TNF-alpha and IL-6 up-regulation (Lin et al., 2010). We therefore pretreated LTA with the inventive peptides and then assess the IL-6 stimulatory activity upon contact with human skin keratinocytes. […] It is very likely that the positively charged residues of the tetrapeptides bind to the negatively charged LTA thus blocking the interaction of LTA with its receptors. This is significant as bacterial cell wall components have been implicated in inflammatory skin conditions such as acne, rosacea, atopic dermatitis etc.
S. aureus LTA induced IL-6 stimulation on human epidermal keratinocytes. Human keratinocytes were grown to >80% confluence in serum free keratinocyte cultural media. S. aureus LTA 10 ug/ml was pre-incubated with each peptide (50 μg/ml) at room temperature for 30 min then the mixture was transferred to keratinocyte culture. The treatment was allowed for 24 hrs. The supernatant was removed. […]

[5] = 72 hr, HB2233 at 200 μg/ml, listed as calcipotriol

C=C1/C(=C\C=C2/CCC[C@]3(C)[C@@H]([C@H](C)/C=C/[C@@H](O)C4CC4)CC[C@@H]23)C[C@@H](O)C[C@@H]1O [Calcipotriol, calcipotriol]
downregulation of HBD-2 ([1]; 72 hr treatment, qPCR): 9.0 fold | downregulation of psoriasin ([1]; 72 hr treatment, qPCR): 2.3 fold | Fold change in gene expression: Calgranulin C ([1]; 72 hr, HB2233 at 200 μg/ml): −1.3 fold | Fold change in gene expression: ENA-78 ([1]; 72 hr, HB2233 at 200 μg/ml): 1.6 fold | Fold change in gene expression: Elafin ([1]; 72 hr, HB2233 at 200 μg/ml): −1.4 fold | Fold change in gene expression: GRO alpha ([1]; 72 hr, HB2233 at 200 μg/ml): 1.3 fold | Fold change in gene expression: HBD-2 ([1]; 72 hr, HB2233 at 200 μg/ml): −9.0 fold | Fold change in gene expression: IL-8 ([1]; 72 hr, HB2233 at 200 μg/ml): 1.3 fold | Fold change in gene expression: Ki-67 ([1]; 72 hr, HB2233 at 200 μg/ml): −1.1 fold | Fold change in gene expression: LL-37 ([1]; 72 hr, HB2233 at 200 μg/ml): 5.1 fold | Fold change in gene expression: P63 ([1]; 72 hr, HB2233 at 200 μg/ml): −1.4 fold | Fold change in gene expression: Psoriasin ([1]; 72 hr, HB2233 at 200 μg/ml): −2.3 fold | Fold change in gene expression: SLPI ([1]; 72 hr, HB2233 at 200 μg/ml): 2.1 fold | Fold change in gene expression: Transglutaminase ([1]; 72 hr, HB2233 at 200 μg/ml): 1.5 fold | Fold change in gene expression: ENA-78 [1, 5]: does not seem to affect | Fold change in gene expression: GRO alpha [1, 5]: does not seem to affect | Fold change in gene expression: Ki-67 [1, 5]: down-regulate

CC[C@H](C)[C@H](N)C(=O)N[C@@H](CCC(=O)O)C(=O)N[C@@H](CCCCN)C(=O)N[C@@H](CCSC)C(=O)O [HB2233, IEKM] (H-IEKM-OH)
CC50 at 24 h [2]: > 500 µg/mL

CC(C)[C@H](N)C(=O)N[C@@H](CCC(=O)O)C(=O)N[C@@H](CCCCN)C(=O)N[C@@H](Cc1ccccc1)C(=O)O [HB2267, VEKF] (H-VEKF-OH; N-terminus and C-terminus assumed)
CC50 at 24 h [2]: > 500 µg/mL

CC[C@H](C)[C@H](N)C(=O)N[C@@H](CCC(=O)O)C(=O)N[C@@H](CCCCN)C(=O)N[C@H](C(=O)O)[C@@H](C)CC [HB2270, IEKI] (H-IEKI-OH; N-terminus and C-terminus assumed)
CC50 at 24 h [2]: > 500 µg/mL

CC[C@H](C)[C@H](N)C(=O)N[C@@H](CCC(N)=O)C(=O)N[C@@H](CCCCN)C(=O)N[C@H](C(=O)O)[C@@H](C)CC [HB2271, IQKI] (H-IQKI-OH; N-terminus and C-terminus assumed)
CC50 at 24 h [2]: > 500 µg/mL

CC[C@H](C)[C@H](N)C(=O)N[C@@H](CCCCN)C(=O)N[C@@H](CCCCN)C(=O)N[C@@H](Cc1c[nH]c2ccccc12)C(=O)O [HB2272, IKKW] (H-IKKW-OH; N-terminus and C-terminus assumed)
CC50 at 24 h [2]: > 500 µg/mL

CC[C@H](C)[C@H](N)C(=O)N[C@@H](CCCCN)C(=O)N[C@@H](CCCCN)C(=O)N[C@H](C(=O)O)C(C)C [HB2273, IKKV] (H-IKKV-OH; N-terminus and C-terminus assumed)
CC50 at 24 h [2]: > 500 µg/mL

CC[C@H](C)[C@H](N)C(=O)N[C@@H](CCCCN)C(=O)N[C@@H](CCCCN)C(=O)N[C@@H](CC(C)C)C(=O)O [HB2274, IKKL] (H-IKKL-OH; N-terminus and C-terminus assumed)
CC50 at 24 h [2]: > 500 µg/mL

LL-37 (LLGDFFRKSKEKIGKEFKRIVQRIKDFLRNLVPRTES; Antibacterial peptide LL-37; UniProt P49913 134-170, looked up) [Human cathelicidin peptide, used as positive control to promote angiogenesis]
capillary tube formation on HUVEC (in words) ([3]; 3 and 5 hr treatment): sprouting of new capillary tubes becomes visible just after 3 hr; also recorded: After 5 hr treatment with LL-37, the closed polygons are formed; also recorded: also stimulate angiogenesis | Promote tube formation 3 hrs ([3]; 3 hrs, values ≥3 considered significant induction of angiogenesis): 3* | Promote tube formation 5 hrs ([3]; 5 hrs, values ≥3 considered significant induction of angiogenesis): 4*

Lipoteichoic acid [LTA alone]
IL-6 expression (arbitrary) [4]: 1.248 arbitrary
